Experimental data: patent US20180172683A1, “METHODS FOR ANALYZING THE INTERACTION BETWEEN A TARGET PROTEIN AND A LIGAND” (UNIVERSITY OF SOUTHERN CALIFORNIA, priority 2015, published 2018)
Peptide text beside a SMILES is read from it. * marks the point of attachment. Biotin = O=C1N[C@H]2[C@H](CS[C@H]2CCCCC(=O)*)N1

Molecular target: T1, Bcl-xL (Homo sapiens, UniProt Q07817)
T1 construct: The gene for the first 209 amino acids of Bcl-xL; made in house; host or cells: E. coli BL21(DE3), pET24a vector
Experiment: Equilibrium immunoassays (ELISA and AMMP data combined), Kd of ligands for Bcl-xL
Type: binding
Settings: for Kd: Kd Determined Using Known [L]0, Monovalent equilibrium model, ELISA and AMMP data; for Kd / Ratio of Fit [L]0 to Known [L]0: mean ± standard error; for Ratio of Fit [L]0 to Known [L]0: simultaneous fit of Kd and [L]0
Method: Sample Preparation. A set of serially diluted Bcl-xL standards, at 2× the desired concentration, were made in sample buffer. For each ligand to be tested (such as peptide ligands), a set of dilutions at 2× the desired concentration was also prepared. The Bcl-xL samples were either mixed 1:1 with sample buffer (standards) or ligands (samples), and allowed to incubate at room temperature for 6 days. After the incubation, the standards and samples were analyzed using ELISA or the ViBE BioAnalyzer (FIG. 1).
ELISA Assays. ELISA plates were incubated overnight at 4° C. with 1.5 nmol of streptavidin (for D1 or Bcl-xL capture ligands) or 54H6 mAb in 1×PBS. Plates were washed 3× with wash buffer (1×PBS+0.1% (v/v) Tween-20) and blocked with 1×PBS+5% (w/v) BSA for two hours. For the D1 or Bcl-xL capture ligands, 100 μL of a 30 nM solution of the reagents was added to wells and incubated for 1 hour. This step was skipped for the 54H6 mAb capture ligand (already immobilized on the plate). After the capture ligand incubation, 100 μL of sample or standards were added in each well, and incubated for 1 hour at room temperature. Plates were washed, incubated with HRP-conjugated probe antibody (such as anti-HIS tag antibody) in sample buffer for 1 hour, washed, and incubated with TMB substrate (Thermo Scientific). Reactions were stopped after approximately 10 minutes with 2 M sulfuric acid, and the absorbance at 450 nm was measured via a plate reader (Molecular Devices). The ligand of interest, capture ligand, target protein, and probe ligand used in example ELISA assays performed are highlighted in the table below.
AMMP Assays. For the AMMP assays, 90 μL of each sample or standards was incubated with 30 μL of magnetic beads (12 μg of beads/mL) and fluorescein-labeled antibody (8 nM) in sample buffer for 1 hour. The experiment's run buffer was 1×PBS+1% (v/v) Tween-20+1% (v/v) heat-treated FBS (Invitrogen; FBS was heat treated for 15 minutes at 65° C. and filtered). BioScale Universal Detection Cartridges were used in performing all of the assays. The device was used per the manufacturer's instructions. The ligand of interest, capture ligand, target protein, and probe ligand used in example AMMP assays performed are highlighted in the table below.
Monovalent and Divalent Analysis. The data for both sets of target concentrations were simultaneously fit for Kd (in the Kd only fit) or Kd and Mo. The data was fitted to the equilibrium model using the lowest absolute deviation method, by varying either only Kd or both Kd and [L]0 simultaneously. The monovalent assay fitting was done by Excel Solver (GRG Non-Lin method) using a set of five initial values. The set of values which provided the lowest error after the fitting were chosen as the final values. For the divalent assays, the fitting was performed by MATLAB's fminsearch function and a set of 10 initial values for Kd1, Kd2, and [L]0. […] For the divalent reverse assay, an extra parameter, Cf, was also determined by fitting (FIG. 7 Reverse Assay).
Enzymatic Kd Calculation Assay. The Kd values of ligands of interest were determined using a protocol modified from Friguet et al., Journal of immunological methods, 77, 305-319 (1985). The samples were prepared and analyzed by ELISA assay in a similar process as described above. The OD450 for the standards and their concentration values were fit to a four parameter logistic curve (standard curve). The concentration of the free Bcl-xL in solution (responsible for the signal) for each sample was calculated using the standard curve, and converted into percent of Bcl-xL bound by ligand in solution.

T1 sequence (Q07817 1-209 limits assumed): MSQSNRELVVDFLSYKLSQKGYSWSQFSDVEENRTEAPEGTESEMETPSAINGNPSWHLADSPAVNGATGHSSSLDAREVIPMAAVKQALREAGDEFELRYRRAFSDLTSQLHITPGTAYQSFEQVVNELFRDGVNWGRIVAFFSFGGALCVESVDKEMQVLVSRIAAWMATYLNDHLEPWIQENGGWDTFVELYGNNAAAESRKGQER

CC[C@H](C)[C@H](NC(=O)[C@H](C)NC(=O)[C@@H](NC(=O)[C@@H](N)CCSC)[C@@H](C)CC)C(=O)N[C@@H](CO)C(=O)N[C@H](C(=O)N[C@H](C(=O)N[C@@H](Cc1ccc(O)cc1)C(=O)N[C@@H](CC(N)=O)C(=O)N[C@@H](Cc1ccc(O)cc1)C(=O)N[C@@H](CCCCN)C(=O)N[C@@H](CCCCN)C(=O)N[C@@H](C)C(=O)N[C@@H](C)C(=O)N[C@@H](CC(=O)O)C(=O)N[C@@H](Cc1c[nH]cn1)C(=O)N[C@@H](Cc1ccc(O)cc1)C(=O)N[C@@H](C)C(=O)N[C@@H](CCSC)C(=O)N[C@H](C(=O)N[C@@H](CCCCN)C(=O)NCC(=O)N[C@@H](CO)C(=O)N[C@@H](CCCCNC(=O)CCCC[C@@H]1SC[C@@H]2NC(=O)N[C@@H]21)C(N)=O)[C@@H](C)O)[C@@H](C)CC)[C@@H](C)O [D1] (H-MIAISTIYNYKKAADHYAMTKGSK(Biotin)-NH2)
kon: 240000 M⁻¹ s⁻¹
Kd: 0.0085 ± 0.002 nM
Ratio of Fit [L]0 to Known [L]0: 109% ± 7%

CC[C@H](C)[C@H](NC(=O)[C@@H](NC(=O)[C@@H](NC(=O)[C@@H](NC(=O)[C@H](CCC(=O)O)NC(=O)[C@@H](NC(=O)[C@@H](N)CCSC)[C@@H](C)CC)[C@@H](C)O)[C@@H](C)CC)[C@@H](C)O)C(=O)N[C@@H](Cc1ccc(O)cc1)C(=O)N[C@@H](CC(N)=O)C(=O)N[C@@H](Cc1ccc(O)cc1)C(=O)N[C@@H](CCCCN)C(=O)N[C@@H](CCCCN)C(=O)N[C@@H](C)C(=O)N[C@@H](C)C(=O)N[C@@H](CC(=O)O)C(=O)N[C@@H](Cc1c[nH]cn1)C(=O)N[C@@H](Cc1ccccc1)C(=O)N[C@@H](CO)C(=O)N[C@@H](CCSC)C(=O)N[C@@H](CO)C(=O)N[C@@H](CCSC)C(=O)NCC(=O)N[C@@H](CO)C(=O)N[C@@H](CCCCNC(=O)CCCC[C@@H]1SC[C@@H]2NC(=O)N[C@@H]21)C(N)=O [E1] (H-MIETITIYNYKKAADHFSMSMGSK(Biotin)-NH2)
kon: 310000 M⁻¹ s⁻¹
Kd: 0.039 ± 0.006 nM
Ratio of Fit [L]0 to Known [L]0: 88% ± 10%
